From ChEMBL document CHEMBL1142475, “1,2,3-Thiadiazole thioacetanilides as a novel class of potent HIV-1 non-nucleoside reverse transcriptase inhibitors” (Bioorg Med Chem Lett, 2008)

Columns and labels:
[1] = test system: Human immunodeficiency virus 1; assay: Antiviral activity against HIV1 3B in human MT4 cells assessed as protection of cell against virus-induced cytopathogenicity; assay type: functional, organism-based; conditions: Human immunodeficiency virus 1, 3B
[2] = Selectivity index, ratio of CC50 for human MT4 cells to EC50 for HIV1 3B; assay type: toxicity, cell-based; conditions: for selectivity ratio: MT4 cells, read-out: Ratio CC50/EC50; for Activity: mt4
[3] = Cytotoxicity against human MT4 cells; assay type: cell-based

Compound	EC50 [1]	selectivity ratio [2]	CC50 [3]	Activity [2]
Cc1ccc(-n2c(C)nnc2SCC(=O)Nc2ccccc2)cc1	2.05 µM			
NS(=O)(=O)c1ccc(NC(=O)CSc2nnc(Br)n2-c2ccc(C3CC3)c3ccccc23)c(Cl)c1	0.14 µM			
O=C(CSc1snnc1-c1ccccc1)Nc1ccccc1Cl	26.1 µM	> 13	> 345 µM	
O=C(CSc1snnc1-c1ccccc1)Nc1ccccc1F	362 µM		> 362 µM	Not Active
O=C(CSc1snnc1-c1ccccc1)Nc1ccccc1Br	22.4 µM	> 14	> 308 µM	
O=C(CSc1snnc1-c1ccc(Cl)cc1Cl)Nc1ccccc1F	0.135 µM	145	19.5 µM	
O=C(CSc1snnc1-c1ccc(Cl)cc1Cl)Nc1ccccc1Br	0.149 µM	≥ 981	≥ 147 µM	
Cc1ccc(NC(=O)CSc2snnc2-c2ccc(Cl)cc2Cl)c(Br)c1	0.204 µM	> 1260	> 256 µM	
COC(=O)c1ccc(NC(=O)CSc2snnc2-c2ccccc2)c(Br)c1	5.1 µM	> 53	> 269 µM	
CCOC(=O)c1ccc(NC(=O)CSc2snnc2-c2ccc(OC)cc2)c(Br)c1	3.01 µM	> 82	> 246 µM	
O=C(CSc1snnc1-c1ccc(F)cc1F)Nc1ccccc1F	5.45 µM	27	148 µM	
O=C(CSc1snnc1-c1ccc(F)cc1F)Nc1ccccc1Br	2.26 µM		144 µM	
O=C(CSc1snnc1-c1ccc(Cl)cc1Cl)Nc1ccccc1Cl	0.118 µM	943	111 µM	
O=C(CSc1snnc1-c1ccc(F)cc1F)Nc1ccccc1Cl	1.23 µM	146	178 µM	
COc1ccc(-c2nnsc2SCC(=O)Nc2ccccc2[N+](=O)[O-])cc1	0.99 µM	≥ 283	≥ 281 µM	
COc1ccc(-c2nnsc2SCC(=O)Nc2ccccc2F)cc1	333 µM		> 333 µM	Not Active

Compound	EC50 [1]	selectivity ratio [2]	CC50 [3]	Activity [2]
O=C(CSc1snnc1-c1ccc(Cl)cc1Cl)Nc1ccccc1[N+](=O)[O-]	0.059 µM	> 4880	> 283 µM	
COc1ccc(-c2nnsc2SCC(=O)Nc2ccc(C)cc2Br)cc1	5.06 µM	49	249 µM	
O=C(CSc1snnc1-c1ccccc1)Nc1ccccc1[N+](=O)[O-]	≥ 54.2 µM		≥ 247 µM	Not Active
Cc1ccc(NC(=O)CSc2snnc2-c2ccccc2)c(Br)c1	13.7 µM	> 22	> 297 µM	
CCOC(=O)c1ccc(NC(=O)CSc2snnc2-c2ccc(Cl)cc2Cl)c(Br)c1	0.099 µM	> 2300	> 228 µM	
COc1ccc(-c2nnsc2SCC(=O)Nc2ccccc2Br)cc1	3.19 µM	> 90	> 286 µM	
CCOC(=O)c1ccc(NC(=O)CSc2snnc2-c2ccccc2)c(Br)c1	5.21 µM	≥ 45	≥ 232 µM	
COC(=O)c1ccc(NC(=O)CSc2snnc2-c2ccc(OC)cc2)c(Br)c1	2 µM	97	195 µM	
Cc1ccc(NC(=O)CSc2snnc2-c2ccc(F)cc2F)c(Br)c1	1.45 µM	> 189	> 274 µM	
COc1ccc(-c2nnsc2SCC(=O)Nc2ccccc2Cl)cc1	2.63 µM	> 121	> 319 µM	
O=C(CSc1snnc1-c1ccc(F)cc1F)Nc1ccccc1[N+](=O)[O-]	4.14 µM	40	165 µM	
CC(C)Nc1cccnc1N1CCN(C(=O)c2cc3cc(NS(C)(=O)=O)ccc3[nH]2)CC1 [DELAVIRDINE]	0.32 µM	> 12	> 3.83 µM	
O=C1Nc2ccc(Cl)cc2[C@@](C#CC2CC2)(C(F)(F)F)O1 [EFAVIRENZ]	0.0044 µM	> 1430	> 6.34 µM	
Cc1ccnc2c1NC(=O)c1cccnc1N2C1CC1 [NEVIRAPINE]			> 15 µM	
Cc1cn([C@H]2C[C@H](N=[N+]=[N-])[C@@H](CO)O2)c(=O)[nH]c1=O [ZIDOVUDINE]	0.0151 µM	> 6190	> 93.5 µM	
